Measured values reported in publication PMC6264335, “Synthesis of Quinolin-2-one Alkaloid Derivatives and Their Inhibitory Activities against HIV-1 Reverse Transcriptase” (Molecules, 2011).
pIC50: −log10 of the molar value. “And” between values parts separate entries of the source, which are not always exact repeats. Equal values may be shown once.

How the values were obtained:
[1] = target: HIV-1 reverse transcriptase (RT); parameters: method as in PMID 8778237; details: cited from earlier work
recombinant HIV-1 RT = recombinant HIV-1 RT (Human immunodeficiency virus type 1 group M subtype B, UniProt P04585); test: HIV-1 RT inhibitory assay (ELISA RT kit, Roche); details: IC50 (effective concentration that inhibits 50% of HIV-1 RT), mean of two independent experiments
Description: HIV-1 reverse transcriptase (RT) activity was measured using a commercially available ELISA RT kit (Roche) according to the instructions of the manufacturer. The compounds were incubated with DIG-labeled reaction mixture at 37 °C for 2 h, then anti-DIG-POD solution was added, followed by substrate ABTS.

SMILES	pIC50 [1]	pIC50 (recombinant HIV-1 RT)
CC(C)=CCOc1c(CC=C(C)C)c(=O)[nH]c2ccccc12 [Compound 3]	5.10	–
O=c1cc(Sc2ccccc2)c2cc(Cl)ccc2[nH]1 [Compound 4a1, 6-Chloro-4-(phenylthio)quinolin-2(1H)-one]	–	5.25
Cc1cc(C)cc(Sc2cc(=O)[nH]c3ccc(Cl)cc23)c1 [Compound 4a2, 6-Chloro-4-(3,5-dimethylphenylthio)quinolin-2(1H)-one]	–	6.68
Cc1cc(C)cc(Sc2cc(=O)[nH]c3ccccc23)c1 [Compound 4a3, 4-(3,5-dimethylphenylthio)quinolin-2(1H)-one]	–	4.89 and 4.74
O=c1cc([S+]([O-])c2ccccc2)c2cc(Cl)ccc2[nH]1 (stereo not shown) [Compound 4b1, 6-Chloro-4-(phenylsulfinyl)quinolin-2(1H)-one]	–	5.05
Cc1cc(C)cc([S+]([O-])c2cc(=O)[nH]c3ccc(Cl)cc23)c1 (stereo not shown) [Compound 4b2, 6-Chloro-4-(3,5-dimethylphenylsulfinyl)quinolin-2(1H)-one]	–	5.59
O=c1cc(S(=O)(=O)c2ccccc2)c2cc(Cl)ccc2[nH]1 [Compound 4c1, 6-Chloro-4-(phenylsulfonyl)quinolin-2(1H)-one]	–	4.31
Cc1cc(C)cc(S(=O)(=O)c2cc(=O)[nH]c3ccc(Cl)cc23)c1 [Compound 4c2, 6-Chloro-4-(3,5-dimethylphenylsulfonyl)quinolin-2(1H)-one]	–	5.00
O=c1cc(Oc2ccccc2)c2cc(Cl)ccc2[nH]1 [Compound 4d1, 6-Chloro-4-phenoxyquinolin-2(1H)-one]	–	5.52
Cc1cc(C)cc(Oc2cc(=O)[nH]c3ccc(Cl)cc23)c1 [Compound 4d2, 6-Chloro-4-(3,5-dimethylphenoxy)quinolin-2(1H)-one]	–	6.82
O=c1cc(-c2ccccc2)c2cc(Cl)ccc2[nH]1 [Compound 5a, 6-Chloro-4-phenylquinolin-2(1H)-one]	–	< 4.00
O=c1cc(-c2ccccc2F)c2cc(Cl)ccc2[nH]1 [Compound 5b, 6-Chloro-4-(2-fluorophenyl)quinolin-2(1H)-one]	–	< 4.00
O=c1cc(-c2ccccc2Cl)c2cc(Cl)ccc2[nH]1 [Compound 5c, 6-Chloro-4-(2-chlorophenyl)quinolin-2(1H)-one]	–	< 4.00
